Experimental findings from patent US9585858B2, “Pharmaceutical composition containing 13 triglycerides, and preparations and use thereof” (ZHEJIANG KANGLAITE GROUP CO., LTD., priority 2014, dated 2017) are described below.

The subject of assay [1] is NK cells. Nature of the assay: Activity of NK cells in mice bearing cancer. The class given is in vivo, DBA/2 mice. Particulars: 20 mg/kg, iv × 7. How it is done:
Each of 60 DBA/2 mice was inoculated subcutaneously with 1×10^4 L1210 leukemia cells of mice. Next day, the mice were grouped randomly into 6 groups (10 mice per group): Lentinan 20 mg/kg, the injection of the invention (6.25 ml/kg, 12.5 ml/kg and 25 ml/kg), solvent control and NS control. Animals were administered, i.v., for 7 days, then sacrificed. Spleens were picked up in aseptic condition. Splenocytes were prepared and adjusted into 1×10^6/ml. The activity of NK cells was detected by using the inhibition on ^3H-TdR incorporation. To wells of a 96 well microplate were added splenocytes cells (effector cells) 100 μl/well, YAC-1 cells (target cells, 1×10^4 cells/ml) 100 μl/well and ^3H-TdR 0.5 μci/well, in triplicate. After being incubated in a 37° C. incubator under 5% CO2 for 24 h, cells were collected, and CPM values were determined. The specific percentage inhibition (Pi), indicating the activity of NK cells, was calculated according to the above formula.

Assay [2] deals with mice bearing L1210 leukemia cells. Nature of the assay: Splenic lymphopoiesis in mice bearing L1210 leukemia cells. The class given is in vivo, DBA/2 mice. Particulars: 20 mg/kg, iv × 7. The method, then: Each of 60 DBA/2 mice was inoculated subcutaneously with 1×10^4 L1210 leukemia cells of mice. Next day, the mice were grouped randomly into 6 groups (10 mice per group): Lentinan 20 mg/kg, the injection of the invention (6.25 ml/kg, 12.5 ml/kg and 25 ml/kg), solvent control and NS control. Animals were administered, i.v., for 7 days, then sacrificed. Spleens were picked up in aseptic condition. Splenocytes were counted and adjusted into 1×10^7/ml. Cells (100 μl/well) and medium (100 μl/well) were added into wells of a 96 well microplate in triplicate. The 96 well microplate was incubated in a 37° C. incubator under 5% CO2 for 48 h. Then, ^3H-TdR (0.5 μci/well) was added and the incubation was continued for 20 h. Cells were collected, and CPM values were determined and compared with control groups. […] Lentinan has also shown immuno-enhancement effect.

The subject of assay [3] is Splenocytes. The experiment in a line: Splenic lymphopoiesis induced by ConA in mice in vitro (3H-TdR incorporation). The class given is cell-based, C57BL/6 mice. How it is done: Spleens were picked up from C57BL/6 mice in aseptic condition. Splenocytes were separated and the concentration of cells was adjusted to 1×10^7 cells/ml with RPMI 1640+15% FCS medium. The experiment groups were as follows: the injection of the invention in four concentrations, lentinan (positive control group) in four concentrations, corresponding solvent (blank control I) and medium (blank control II). 100 μl Cells, 100 μl solution of drug/control and 50 μl ConA were added in each well in triplicate. The 96 well microplate was incubated in a 37° C. incubator under 5% CO2 for 48 h. ^3H-TdR (0.5 μci/well) was added and the incubation was continued for 20 h. Cells were collected, and CPM values were determined in a liquid scintillation counter and compared with control groups. It is shown in the results (table 3) that the injection of the invention, as same as lentinan, has obviously facilitated the splenic lymphopoiesis in mice in vitro and the effect is linear dependent to the concentration.

Assay [4] has as its system IL-2. Nature of the assay: Production of IL-2 in mice suffering from L1210 leukemia (CTLL cell 3H-TdR incorporation). The assay is classed as in vivo, DBA/2 mice. The settings on record: 20 mg/kg, iv × 7. How it is done:
Each of 60 DBA/2 mice was inoculated subcutaneously with 1×10^4 L1210 leukemia cells of mice. Next day, the mice were grouped randomly into 6 groups (10 mice per group): Lentinan 20 mg/kg, the injection of the invention (6.25 ml/kg, 12.5 ml/kg and 25 ml/kg), solvent control and NS control. Animals were administered, i.v., for 7 days, then sacrificed. Spleens were picked up in aseptic condition. Splenocytes were prepared and adjusted into 1×10^7/ml. To each well of a 24 well plate were added splenocytes cells (2 ml) and Con A (5 μg/ml). After the plate was incubated in a 37° C. incubator under 5% CO2 for 24 h, the supernate was collected. The activity of IL-2 was determined in IL-2 dependent CTLL cell strain by using the method of ^3H-TdR incorporation.

The subject of assay [5] is NK cells. The experiment in a line: Activity of NK cells in mice in vitro (inhibition of 3H-TdR incorporation, YAC-1 target cells). Particulars: for CPM (x ± SD), activity of NK cells in mice in vitro: splenocytes:YAC-1 100:1, 24 h. The class given is cell-based, C57BL/6 mice. The method, then: Method: The activity of NK cells were detected by the inhibition on ^3H-TdR incorporation.
Spleens were picked up from C57BL/6 mice in aseptic condition. Splenocytes, as effector cells, were adjusted to 1×10^6 cells/ml. YAC-1 cells, target cells, which have been cultured for 24 h, were adjusted to 1×10^4 cells/ml. The cells were added into wells of a 96 well microplate (100 μl/well). The experiment groups were as follows: the injection of the invention in four concentrations, lentinan (positive control group) in four concentrations, corresponding solvent (blank control I) and medium (blank control II). To each well of a 96 well microplate were added Splenocytes: YAC-1 cells=100: 1 (100 μl), test sample (100 μl) and ^3H-TdR 0.5 μci/well. After being incubated in a 37° C. incubator under 5% CO2 for 24 h, cells were collected, and CPM values were determined. The specific percentage inhibition (Pi), indicating the activity of NK cells, was calculated according to the formula: Pi=(1−CPMExp./CPMcont.)×100%

For the substance Lentinan, in assay [1], the “CPM (x ± SD), activity of NK cells in mice bearing cancer” value came to 5660 ± 260 CPM. Also, the “Pi (%), activity of NK cells in mice bearing cancer” value in assay [1] was determined as 54.5%. Moreover, the “CPM (x ± SD), splenic lymphopoiesis in mice bearing L1210 leukemia cells” value in assay [2] came to 7410 ± 770 CPM. Further, the “CPM (x ± SD), splenic lymphopoiesis in mice in vitro” value in assay [3] (100 μl (1:1)) was found to be 7700 ± 747 CPM; in assay [3] (100 μl (1:2)), 11025 ± 1133 CPM; in assay [3] (100 μl (1:4)), 11555 ± 1279 CPM; in assay [3] (100 μl (stock solution)), 7420 ± 957 CPM. The “CPM (x ± SD), production of IL-2 in mice suffering from L1210 leukemia” value in assay [4] turned out to be 2750 ± 123 CPM. In addition, the “Pi % (specific percentage inhibition, activity of NK cells) in vitro” value is 33.5% in assay [5] (100 μl (1:1)), 35.5% in assay [5] (100 μl (1:2)), 54.5% in assay [5] (100 μl (1:4)) and 29.5% in assay [5] (100 μl (stock solution)). For the same substance, the “CPM (x ± SD), activity of NK cells in mice in vitro” value amounted to 8130 ± 930 CPM in assay [5] (100 μl (1:1)), 7892 ± 995 CPM in assay [5] (100 μl (1:2)), 5544 ± 85 CPM in assay [5] (100 μl (1:4)) and 8625 ± 1135 CPM in assay [5] (100 μl (stock solution)).
